Reference: patent publication US20220347299A1, “FLUORESCENT SYSTEMS FOR BIOLOGICAL IMAGING AND USES THEREOF” (LIGHTOX LIMITED, priority 2019, published 2022)

Tests used:
[1] = Peak absorption and fluorescence emission wavelengths in solvents; type: physicochemical; conditions: for λem(max)/nm: 100 nM, excitation at peak of absorption; for λabs(max)/nm: 10 μM
Protocol: Peak absorption and fluorescence emission wavelengths of compounds 6, 7, 12, 13, 14, 15, 19, 23, 27, 30 and 34 were measured in a variety of solvents, and the results are shown in Table 1. Absorption measurements were recorded at a concentration of 10 μM, and emission measurements were recorded at a concentration of 100 nM. Emission spectra were recorded with excitation at the peak of absorption (S0→S1).

[2] = Photophysical comparison of para- and ortho-substituted compounds in chloroform; type: physicochemical; conditions: for excitation by 405 nm violet excitation laser light source (absorption at this wavelength): Chloroform
Protocol: To compare the photophysical behaviour of para-substituted compounds of the invention with ortho-substituted compounds, compound 73 and reference compound 77 were synthesised in accordance with Example 1:
Solutions of compounds 73 and 77 were prepared at concentrations of 10 μM and 100 nM in chloroform. The absorption spectra of each compound (10 μM) was recorded using a CARY100 UV-Visible spectrometer, from 200-800 nm, and is shown in FIG. 3a after solvent background subtraction. […] Also shown in FIG. 3a is the approximate bandwidth of a 405 nm violet excitation laser light source that is commonplace on fluorescence microscopes used for cellular imaging studies.
To assess this effect and to compare the fluorescence emission properties of 73 and 77, solutions of both compounds in chloroform (100 nM) were excited at both 360 nm and 405 nm. At 360 nm excitation, 73 and 77 were excited with high efficiency since this wavelength is close to the absorption maxima of both compounds.
Both compounds were also excited at 405 nm to compare their respective suitabilities towards imaging using a typical fluorescence microscope.

HaCaT keratinocytes = experiment: Co-staining with organelle markers, co-localisation (PCC); type: cell-based; conditions: 1 μM compound, 30 minutes, BODIPY ER-Tracker Red
Protocol: To study the localisation of compounds in biological cells, co-staining of compounds of formula I with specific organelle markers (fluorescent dyes and antibodies) within biological cells was conducted. The following compounds were studied: compounds 6, 7, 12, 13, 14 and 15. HaCaT keratinocyte cell lines were used for the following experimental procedures. The cells were incubated in cell culture media (94% Dulbecco's Modified Eagle Medium (DMEM), 5% Foetal Bovine Serum (FBS) and 1% Penicillin Streptomycin solution (Pen-Strep). The cells were plated in 8-well plates, at a concentration of 25,000 cells per ml. 200 μl of cell suspension was added to each well, and the cells were incubated for 2 days before staining and imaging was carried out. In order to visualise the mitochondria, cells were probed with the mitochondrial dye MitoTracker® Deep Red. Cells to be stained were incubated with 200 μl MitoTracker® Deep Red solution (200 nM MitoTracker® and 1 μM Formula I compound in cell culture media) per well (N=3) for 30 minutes. Nile Red was used to identify lipids within the cells. 200 μl Nile Red Lipophilic dye (10 μg/ml Nile Red and 1 μM Formula I compound in cell culture media) was added to each well (N=3) and incubated for 30 minutes. For the detection of lysosomes within the cells, LysoTracker® Red DND-99 dye was used. 200 μl LysoTracker® Red DND-99 (50 nM LysoTracker® and 1 μM Formula I compound solution in cell culture media) was added to each well (N=3) and incubated for 30 minutes. For visualisation of the endoplasmic reticulum (ER), cells were stained with BODIPY® ER-Tracker® Red. 200 μl BODIPY ER-Tracker® Red (1 μM BODIPY® and 1 μM Formula I compound solution in cell culture media) was added to each well (N=3) and incubated for 30 minutes. Following incubation, the cell culture media containing dye was removed, and cells were washed twice with 200 μl phosphate buffered saline (PBS). After washing, 200 μl PBS was added into each well for imaging. For visualisation of the nuclear lamina, cells were probed with an anti-lamin A/C antibody. The cells were plated on 22×22 mm cover slips (10,000 cells/ml) and incubated for 2 days before staining. The cells were washed with PBS to remove excess media before staining. The cells were fixed with 4% paraformaldehyde (PFA) for 10 minutes at room temperature, before being washed twice in PBS for 5 minutes. Following washing, the cells were permeabilised in 0.4% Triton X-100 in PBS for 10 minutes. The cells were subsequently washed three times in PBS for 5 minutes, before being incubated in blocking buffer (1% BSA, 0.1% fish gelatine and 0.1% Triton X-100 in PBS) for 15 minutes at room temperature. The cells were incubated in primary antibody (mouse anti-lamin A/C IgG in blocking buffer) for 1 hour at room temperature. The cells were then washed twice in blocking buffer and incubated in secondary antibody (anti-mouse Alexa-594 IgG in blocking buffer) for 30 minutes at room temperature. Cells were washed twice in PBS for 10 minutes at room temperature. For cell staining with compounds of formula I, 5 μM of the compound of formula I in PBS was added to the cells for 30 minutes at room temperature. Cells were then washed five times for 5 minutes in PBS. Following washing, the cells were mounted onto non-charged microscopy slides using 6 μl Mowiol® per cover slip as mounting media. A Zeiss 880 confocal microscope was used for all the imaging work. [table] Image) Coloc2 software was used to calculate co-localization statistics between the compounds of formula I and the organelle marker images. The background was subtracted from each image and a region of interest (ROI) was used to target the analysis. The point spread function (PSF) of each image was calculated as 2.0 and Coastes' iterations was set to 100. The statistic quantified was the Pearson's Correlation Coefficient (PCC). PCC gives a number ranging from +1 to −1:1=perfect co-localisation; 0=no relationship; and, −1=perfect anti-co-localisation. […]

black-grass cells = experiment: Cytotoxicity assay (FDA/PI) in black-grass cell suspension culture; type: cell-based
Protocol: 5 mL of black-grass cell suspension culture was treated with 0.1, 1, 5, and 10 μM of compound numbers 7, 14, 12 and 15 for 1 hour at room temperature. Cells treated with 0.1% DMSO were used as a control. Cells were irradiated (˜365 nm) for 5 minutes before being incubated at 25° C., 150 rpm for 24 hours. In addition, the cytotoxicity of the compounds without irradiation was also assessed. Cell viability of five biological replicates for each concentration were determined via fluorescence assay (FDA/PI) assay. Percentage of cell viability was calculated using following formulation:
% viability={live cells (FDA)/(live cells+dead cells)}×100
The statistical analysis of percentage of cell viability was performed through one-way analysis of variance (ANOVA) followed by Tukey HSD posthoc test using SPSS 23 (IBM, Chicago, Ill., USA).

[3] = 0.1, 1, 5, 10 μM, with and without ~365 nm irradiation 5 minutes, 24 hours

Compound | λem(max)/nm ([1]; Chloroform) [nm] | λabs(max)/nm ([1]; Chloroform) [nm] | average PCC Value with BODIPY ER-Tracker (HaCaT keratinocytes) | λem(max)/nm ([1]; DCM) [nm] | λabs(max)/nm ([1]; DCM) [nm] | λem(max)/nm ([1]; Toluene) [nm] | λabs(max)/nm ([1]; Toluene) [nm] | also measured
COC(=O)/C=C/c1ccc(C#Cc2ccc(N3CCN(C)CC3)cc2)cn1 [Compound 73, methyl (2E)-3-(5-{2-[4-(4-methylpiperazin-1-yl)phenyl]ethynyl}pyridin-2-yl)prop-2-enoate] | – | – | – | – | – | – | – | excitation by 405 nm violet excitation laser light source (absorption at this wavelength) ([2]; 10 μM): capable of efficient excitation; fluorescence emission at 360 nm excitation, compared to the other compound ([2]; chloroform, 100 nM): substantially stronger fluorescence emission; fluorescence emission at 405 nm excitation ([2]; chloroform, 100 nM): of a similar intensity to excitation at 360 nm; shift of fluorescence emission compared to compound 77 ([2]; chloroform, 100 nM, 360 nm excitation): significant bathochromic shift
O=C1/C(=C/c2ccc(C#Cc3ccc(N4CCNCC4)cc3)cc2)N=C(c2ccccc2)N1CCN1CCOCC1 [Compound 23, (4Z)-1-[2-(morpholin-4-yl)ethyl]-2-phenyl-4-[(4-{2-[4-(piperazin-1-yl)phenyl]ethynyl}phenyl)methylidene]-4,5-dihydro-1H-imidazol-5-one] | 616 | 424 | – | – | – | – | – | –
COCCN1C(=O)/C(=C/c2ccc(C#Cc3ccc(N4CCNCC4)cc3)cc2)N=C1C [Compound 19, (4Z)-1-(2-methoxyethyl)-2-methyl-4-[(4-{2-[4-(piperazin-1-yl)phenyl]ethynyl}phenyl)methylidene]-4,5-dihydro-1H-imidazol-5-one] | 584 | 403 | – | – | – | 515 | 403 | λabs(max)/nm ([1]; MeOH): 395 nm
COC(=O)/C=C/c1ccc(C#Cc2ccc(N3CCNCC3)cc2)cc1 [Compound 7, methyl (2E)-3-(4-{2-[4-(piperazin-1-yl)phenyl]ethynyl}phenyl)prop-2-enoate] | – | – | 0.32 | 563 | 362 | 504 | 361 | black-grass cell viability (black-grass cells; [3]): did not reduce black-grass cell viability regardless of concentration or irradiation treatment
COC(=O)/C=C/c1ccc(C#Cc2ccc(N(C)CCNS(=O)(=O)c3ccc(C)cc3)cc2)cc1 [Compound 15, methyl (2E)-3-{4-[2-(4-{methyl[2-(4-methylbenzenesulfonamido)ethyl]amino}phenyl)ethynyl]phenyl}prop-2-enoate] | – | – | 0.30 | 545 | 377 | 473 | 381 | black-grass cell viability (black-grass cells; [3]): did not reduce black-grass cell viability regardless of concentration or irradiation treatment
COC(=O)/C=C/c1ccc(C#Cc2ccc(N3CCN(CCC[P+](c4ccccc4)(c4ccccc4)c4ccccc4)CC3)cc2)cc1.[Br-] [Compound 14, (3-{4-[4-(2-{4-[(1E)-3-methoxy-3-oxoprop-1-en-1-yl]phenyl}ethynyl)phenyl]piperazin-1-yl}propyl)triphenylphosphonium bromide] | – | – | 0.68 | 531 | 361 | 506 | 367 | black-grass cell viability (black-grass cells; 1 μM, also in non-irradiation treatment): significantly reduced; dependence of cytotoxic effect on irradiation (black-grass cells; black-grass cells, ~365 nm, 5 minutes): independent of irradiation
CC(C)(C)OC(=O)/C=C/c1ccc(C#Cc2ccc(N3CCNCC3)cc2)s1 [Compound 27, tert-butyl (2E)-3-(5-{2-[4-(piperazin-1-yl)phenyl]ethynyl}thiophen-2-yl) prop-2-enoate] | – | – | – | 524 | 371 | 493 | 380 | –
NCCN1C(=O)/C(=C/c2ccc(C#Cc3ccc(N4CCC4)cc3)cc2)N=C1c1ccccc1 [Compound 34, (4Z)-1-(2-aminoethyl)-4-[(4-{2-[4-(azetidin-1-yl)phenyl]ethynyl}phenyl)methylidene]-2-phenyl-4,5-dihydro-1H-imidazol-5-one] | 628 | 432 | – | – | – | – | – | –
COC(=O)/C=C/c1ccc(C#Cc2ccccc2N2CCN(C)CC2)cn1 [Compound 77, methyl (2E)-3-(5-{2-[2-(4-methylpiperazin-1-yl)phenyl]ethynyl}pyridin-2-yl)prop-2-enoate, reference compound] | – | – | – | – | – | – | – | excitation by 405 nm violet excitation laser light source (absorption at this wavelength) ([2]; 10 μM): absorbed only very weakly; fluorescence emission at 405 nm excitation ([2]; chloroform, 100 nM): only very weak fluorescence emission; absorption spectrum, ortho-position 77 relative to para-position 73 ([2]; chloroform, 10 μM, 200-800 nm): substantial hypsochromic shift and reduction in extinction coefficient

Second part, led by results:

λem(max)/nm ([1]; Chloroform) [nm] | λabs(max)/nm ([1]; Chloroform) [nm] | average PCC Value with BODIPY ER-Tracker (HaCaT keratinocytes) | λem(max)/nm ([1]; DCM) [nm] | λabs(max)/nm ([1]; DCM) [nm] | λem(max)/nm ([1]; Toluene) [nm] | λabs(max)/nm ([1]; Toluene) [nm] | Compound | also measured
535 | 374 | – | – | – | – | – | COC(=O)/C=C/c1ccc(C#Cc2ccc(N3CCC3)cc2)cc1 [Compound 30, methyl (2E)-3-(4-{2-[4-(azetidin-1-yl)phenyl]ethynyl}phenyl)prop-2-enoate] | –
– | – | −0.18 | 547 | 361 | 464 | 358 | COC(=O)/C=C/c1ccc(C#Cc2ccc(N3CCN(C(C)=O)CC3)cc2)cc1 [Compound 13, methyl (2E)-3-(4-{2-[4-(4-acetylpiperazin-1-yl)phenyl]ethynyl}phenyl) prop-2-enoate] | –
